Results taken from patent US6344457B1, “Amino acid derivatives inhibiting extracellular matrix metalloproteinase and TNF alpha release” (Chiesi Farmaceutici S.p.A., priority 1997, dated 2002).
Read-outs that look alike come from different tables or passages of the source.

Experiments:
[1] = molecular target: T1, collagenase of the human monocytic stock U937 (Homo sapiens, UniProt P03956); assay: Activity on collagenase; format: biochemical; details: radiomarked collagen, 27° C., 16 hours; read-out: C150 (nM) collagenase
T1 construct: the collagenase of the human monocytic stock U937; endogenous in cells; host or cells: U937 human monocytic cell line
T1 sequence (P03956 100-469): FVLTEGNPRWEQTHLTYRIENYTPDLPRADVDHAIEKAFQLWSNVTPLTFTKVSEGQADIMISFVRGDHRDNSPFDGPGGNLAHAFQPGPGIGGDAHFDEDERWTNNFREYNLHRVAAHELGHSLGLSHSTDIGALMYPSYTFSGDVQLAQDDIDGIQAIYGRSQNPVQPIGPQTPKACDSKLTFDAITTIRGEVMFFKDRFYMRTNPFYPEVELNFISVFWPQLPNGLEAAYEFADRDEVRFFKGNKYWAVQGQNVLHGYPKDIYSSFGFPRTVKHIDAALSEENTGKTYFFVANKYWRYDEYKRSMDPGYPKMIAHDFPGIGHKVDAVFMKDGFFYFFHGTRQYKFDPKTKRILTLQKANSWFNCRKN
Procedure: The collagenase was incubated at 27° C. for 16 hours with radiomarked collagen, and its activity was determined by the release of soluble peptides produced by the enzymatic breakdown of the collagen. The inhibiting concentration C150 for each compound was determined by measurement of the activity of the enzyme in the presence of the inhibitor at a concentration ranging between 10^−7 and 10^−12 M (the inhibitor is dissolved at a concentration of 10^−2 M in DMSO, then diluted successively by tenths in the buffer: Tris, HCl 150 mM, pH 7.5; NaCl 0.15 M; CaCl2 10 mM).

[2] = molecular target: 92 kDa gelatinase of human origin (Homo sapiens, UniProt P14780); assay: Activity on gelatinase, radiomarked gelatin; format: biochemical; details: for IC50: test performed with radiomarked gelatin, read-out: C150 (nM) gelatinase 92 kDa*; for gelatinase 92 kDa* (in %): radiomarked gelatin, concentration not given
Procedure: The anti-gelatinase activity of the compounds according to the invention also was determined on 92 kDa or 72 kDa gelatinase of human origin, in accordance with the operating mode described by Harris, E. D., Krane, S. M.; (Biochem. Biophys. Acta, 258, 566-576, 1972).
(§1) The gelatinase was incubated at 37° C. for 16 hours with radiomarked gelatin, and its activity was determined by the release of the soluble peptides produced by the enzymatic breakdown of the gelatin. The inhibiting concentration C150 for each compound was determined by measurement of the activity of the enzyme in the presence of the inhibitor at a concentration ranging between 10^−7 and 10^−12 M (the inhibitor is dissolved in the same manner as for collagenase).

[3] = molecular target: T2, 72 kDa gelatinase of human origin (Homo sapiens, UniProt P08253); assay: Activity on gelatinase, synthetic substrate; format: biochemical; details: performed on synthetic substrate; read-out: C150 (nM) gelatinase 72 kDa**
T2 sequence (P08253 110-660): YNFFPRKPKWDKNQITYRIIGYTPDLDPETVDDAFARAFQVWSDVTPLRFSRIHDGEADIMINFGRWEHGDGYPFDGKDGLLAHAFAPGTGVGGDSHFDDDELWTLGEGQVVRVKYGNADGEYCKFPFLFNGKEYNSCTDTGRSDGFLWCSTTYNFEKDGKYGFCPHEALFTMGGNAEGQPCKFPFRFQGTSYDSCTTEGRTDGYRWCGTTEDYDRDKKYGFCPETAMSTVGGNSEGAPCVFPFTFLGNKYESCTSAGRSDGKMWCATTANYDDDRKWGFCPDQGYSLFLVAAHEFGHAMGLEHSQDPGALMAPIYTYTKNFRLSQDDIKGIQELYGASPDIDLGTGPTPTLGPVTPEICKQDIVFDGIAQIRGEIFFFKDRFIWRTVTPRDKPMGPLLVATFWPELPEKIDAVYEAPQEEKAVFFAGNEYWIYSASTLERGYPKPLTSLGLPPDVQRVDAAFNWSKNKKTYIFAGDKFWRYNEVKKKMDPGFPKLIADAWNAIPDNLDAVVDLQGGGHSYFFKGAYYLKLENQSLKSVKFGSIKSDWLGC
Procedure: The anti-gelatinase activity of the compounds according to the invention was determined on 72 kDa gelatinase of human origin, in accordance with the operating mode described by Knight, C. G., Willenbrock, F., Murphy, G. (FEBS Letters, 296 (3), 263-266, 1992).
The gelatinase was incubated at 37° C. for 10 minutes, and its activity was determined by the increase in fluorescence of the product of Mca-Pro-Leu breakdown of the Mca-Pro-Leu-Gly-Leu-Dpa-Ala-Arg-NH2 synthetic substrate.
The inhibiting concentration C150 for each compound was determined by measurement of the activity of the enzyme in the presence of the inhibitor at a concentration ranging between 10^−7 and 10^−12 M (the inhibitor is dissolved at a concentration of 10^−2 M in DMSO, then diluted successively by tenths in DMSO to 10^−4 M, then in the buffer: Tris, HCl 50 mM+0.05% Brij 35; CaCl2 10 mM; NaCl 0.15 M).

[4] = molecular target: stromelysine of human origin (Homo sapiens, UniProt P08254); assay: Activity on stromelysine; format: biochemical; details: radiomarked transferrin, 37° C., 16 hours; read-out: C150 (nM) stromelysine
Procedure: as §1, with “stromelysine” for “gelatinase”, “transferrin,” for “gelatin,”, “transferrin.” for “gelatin.”

[5] = tested on: release of TNF from the peritoneal macrophages of mice stimulated by LPS; assay: Inhibition of the production of TNF in vitro; format: cell-based; details: mouse peritoneal macrophages, LPS 100 ng/ml, read-out: C150 (μM) TNF
Procedure: The capacity of the compounds according to this invention to inhibit the release of TNF was determined from the peritoneal macrophages of mice stimulated by LPS (Lang, F., Robert, […], Petit, J. Y., J. Pharmacol. Exp. Ther., 275, 171-176, 1995). After an adhesion phase of 2 hours, the cells were treated for 1 hour with the compound to be tested at concentrations ranging between 10^-6 to 10^-9 M (the inhibitor is dissolved in DMSO at 10^-2 M, then at 5.10^-3 M in RPMI 1640 with 5% SVF, then diluted successively by tenths in the same medium), then stimulated by the addition of LPS (100 ng/ml in final concentration). Three hours later, the biological activity of the TNF in the supernatants was determined by a cytotoxicity test using the murine stock L929 in accordance with the operating procedure described by Band, G., Lin, […]., Evans, C. H. (Bioch. Biophys. Acta, 1134, 309-318, 1982). The pg/ml concentration of the TNF of the samples was determined from a murine αTNF standard curve, thus making it possible to define the inhibiting concentration […] of the compounds studied.

Chain of stromelysine of human origin (P08254 100-477): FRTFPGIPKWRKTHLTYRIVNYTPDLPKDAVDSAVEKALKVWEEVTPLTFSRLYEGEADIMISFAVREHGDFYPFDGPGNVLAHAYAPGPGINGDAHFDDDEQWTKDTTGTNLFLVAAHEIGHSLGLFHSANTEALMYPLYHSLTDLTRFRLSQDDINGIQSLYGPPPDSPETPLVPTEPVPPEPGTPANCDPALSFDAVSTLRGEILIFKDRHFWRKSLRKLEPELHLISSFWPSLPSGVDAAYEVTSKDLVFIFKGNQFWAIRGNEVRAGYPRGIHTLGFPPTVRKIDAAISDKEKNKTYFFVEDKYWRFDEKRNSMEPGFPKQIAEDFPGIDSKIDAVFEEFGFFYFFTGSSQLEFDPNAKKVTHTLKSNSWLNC
Chain of 92 kDa gelatinase of human origin (P14780 94-707): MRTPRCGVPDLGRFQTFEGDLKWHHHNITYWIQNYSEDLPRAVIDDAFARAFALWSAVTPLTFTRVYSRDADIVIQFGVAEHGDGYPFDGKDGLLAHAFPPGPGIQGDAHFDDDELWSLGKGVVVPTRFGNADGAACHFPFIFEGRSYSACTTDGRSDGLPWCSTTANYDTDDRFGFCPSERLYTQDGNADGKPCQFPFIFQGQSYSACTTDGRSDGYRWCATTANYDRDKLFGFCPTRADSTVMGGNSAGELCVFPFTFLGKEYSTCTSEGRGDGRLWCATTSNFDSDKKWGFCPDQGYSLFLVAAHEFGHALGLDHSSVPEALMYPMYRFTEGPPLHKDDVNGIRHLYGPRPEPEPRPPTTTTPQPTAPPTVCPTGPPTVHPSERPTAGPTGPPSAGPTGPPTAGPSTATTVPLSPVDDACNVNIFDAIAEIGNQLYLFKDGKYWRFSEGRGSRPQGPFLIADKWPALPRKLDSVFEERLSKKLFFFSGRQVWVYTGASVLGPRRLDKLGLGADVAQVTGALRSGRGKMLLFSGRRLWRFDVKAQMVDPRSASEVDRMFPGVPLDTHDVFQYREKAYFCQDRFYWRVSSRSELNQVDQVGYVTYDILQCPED

Compound | IC50 [1] [nM] | IC50 [2] [nM] | IC50 [3] [nM] | IC50 [4] [nM] | IC50 ([5]; Peritoneal macrophage) [µM] | gelatinase 92 kDa* (in %) [2] [%] | IC50 [5] [µM]
CNC(=O)[C@@H](NC(=O)[C@](O)(CC(C)C)[C@H](C)C(=O)NO)C(C)(C)C [Example 2, N-2-(S)[1(S)(hydroxycarbamoyl)ethyl]-2(S) hydroxy-4-methylpentanoyl 3-methyl-(S) valine N-methylamide] | 18 | 16 | 3.4 | 60 |  |  | 
COc1ccc(C[C@H](NC(=O)[C@](O)(CC(C)C)[C@H](C)C(=O)NO)C(=O)NCc2ccccc2)cc1 [Example 5, N-2(S)[-1-(S)(hydroxycarbamoyl)-ethyl]-2(S) hydroxy-4-methyl 2entanol O methyl-L-tyrosine phenylmethylamide] | 12 | 0.5 | 2.4 | 11 |  |  | 
CNC(=O)[C@H](Cc1ccc(OC)cc1)NC(=O)[C@](O)(C(C)C)[C@H](C)C(=O)NO [Example 7, N-2(S) [-1-(S) hydroxycarbamoyl 1(S)ethyl] 2(S) hydroxy-3 methyl butanoyl O-methyltyrosine N-methylamide] | 30 | 17 | 18 |  | 2 |  | 
CCC[C@H](C(=O)NO)[C@@](O)(CC(C)C)C(=O)N[C@@H](Cc1ccc(Cl)cc1)C(=O)NC [Example 17, N-2(S) hydroxy 3(S) hydroxycarbamoyl 2(S) 1(2-methyl) propyl hexanoyl L-4-chlorophenylalanine N-methyl amide] |  | 1.6 | 1.6 |  | 0.27 |  | 
CC(C)C[C@@](O)(C(=O)N[C@@H](Cc1ccc(Cl)c(Cl)c1)C(=O)NCCOCCO)[C@H](C)C(=O)NO [Example 19, N-2(S)[1(S)hydroxycarbamoyl-1 ethyl]-2 (S) hydroxy 4-methylpentanoyl L-3,4 dichlorophenylalanine N-hydroxyethyloxyethylamide] | 7 | 0.001 | 0.7 |  | 0.5 |  | 
CNC(=O)[C@H](Cc1ccc(Cl)cc1Cl)NC(=O)[C@](O)(CC(C)C)[C@H](C)C(=O)NO [Example 20, N-2(S)[1(S)hydroxycarbamoyl-1 ethyl]-2 (S) hydroxy 4-methylpentanoyl L-2,4-dichlorophenylalanine N-methylamide] | 3.7 | 0.2 | 1.6 |  | 1 |  | 
CSCCNC(=O)[C@H](Cc1ccc(Cl)c(Cl)c1)NC(=O)[C@](O)(CC(C)C)[C@H](C)C(=O)NO [Example 21, N-2(S)[1(S)hydroxycarbamoyl-1 ethyl]-2(S) hydroxy-4-methylpentanoyl L-3,4-dichlorophenylalanine N-(2-methylthio-1-ethyl) amide] | 5 |  |  |  | 0.4 | 83 | 
COCCOCCNC(=O)[C@H](Cc1ccc(Cl)c(Cl)c1)NC(=O)[C@](O)(CC(C)C)[C@H](C)C(=O)NO [Example 23, N-2(S) [1(S) hydroxycarbamoyl-1 ethyl]-2(S) hydroxy 4-methyl pentanoyl L-3,4-dichlorophenylalanine N-(2-(2-methoxyethoxy)1-ethyl)amide] |  |  | 0.14 |  | 0.37 | 60 | 
CNC(=O)[C@H](Cc1ccc(OC)cc1)NC(=O)[C@](O)(CC(C)C)[C@H](OC)C(=O)NO [Example 31, N-2(S)[(S) hydroxycarbamoyl(S)methoxy]methyl 2(S) hydroxy-4 methyl pentanoyl O-methyl tyrosine N-methylamide] | 120 | 140 | 18 | 90 |  |  | 
C[C@H](C(=O)NO)[C@@](O)(CCCc1ccccc1)C(=O)N[C@@H](CC1CCCCC1)C(=O)NCCc1ccccc1 [Example 32, N-2-(S)[1(S)(hydroxycarbamoyl)ethyl]2(S) hydroxy 5-phenyl pentanoyl L-3-cyclohexylalanine 2 phenylethylamide] |  | 1.9 | 0.8 |  | > 1 |  | 
CNC(=O)[C@H](Cc1ccc(Cl)c(Cl)c1)NC(=O)[C@](O)(CCCc1ccccc1)[C@H](C)C(=O)NO [Example 33, N-2-(S)[1(S)(hydroxycarbamoyl)ethyl]2(S) hydroxy 5-phenylpentanoyl L-3,4-dichlorophenylalanine N-methylamide] | 225 |  | 0.01 |  | 0.58 | 86 | 
CC(C)C[C@@](O)(C(=O)N[C@@H](Cc1ccc(Cl)c(Cl)c1)C(=O)NCCN1CCOCC1)[C@H](C)C(=O)NO [Example 35b] | 4 | 1.1 |  |  | 0.3 |  | 
CNC(=O)[C@H](Cc1ccc(OC)cc1)NC(=O)[C@](O)(CC(C)C)[C@H](C)S [Example 36, N-2(R)-[(1-thioethyl)] 2(R) hydroxy 4-methyl pentanoyl-o-methyl-L-tyrosine methylamide] | 500 | 23 |  |  | 3 |  | 
CNC(=O)[C@H](Cc1ccc(Cl)c(Cl)c1)NC(=O)[C@@](O)(CS)CC(C)C [Example 37] | > 1000 | 70 |  |  | 2 |  | 
N-2(S)[1(S)-hydroxycarbamoyl-1 (S) ethyl]-2 (S)-hydroxy-4-methyl pentanoyl L-(3,4)-dichlorophenylalanine N-(2-(4-morpholino)1-ethyl) amide [Example 35a] | 6 | 0.38 |  |  |  |  | 0.86
